Assay results reported in PubChem BioAssay AID330 (DTP/NCI, 2004).
“And” between values parts separate entries of the source, which are not always exact repeats. Identical values can stand only once. Inconclusive results and toxic doses are left out. How the source made its calls: active means survival T/C of 150% or more; inactive means T/C below 125% in these data.

Tested on: P388 leukemia ip, CD2F1 mice, survival T/C
Test: NCI In Vivo Anticancer Drug Screen. Data for tumor model P388 Leukemia (intraperitoneal) in CD2F1 (CDF1) mice
Conditions: endpoint: median survival time, higher = longer survival
Method in brief: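 Mice carrying the transplanted tumor received test compound or vehicle. Survival was recorded in each group, and the value is the treated-group measurement divided by that of the vehicle-treated control group.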

[1] = dose: 25.0 mg/kg/injection, schedule: Q01DX009 (ip), vehicle: saline with Tween-80
[2] = dose: 50.0 mg/kg/injection, schedule: Q01DX009 (ip), vehicle: saline with Tween-80
[3] = dose: 200.0 mg/kg/injection, schedule: Q01DX009 (ip), vehicle: saline with Tween-80
[4] = dose: 100.0 mg/kg/injection, schedule: Q01DX009 (ip), vehicle: saline with Tween-80
[5] = dose: 12.5 mg/kg/injection, schedule: Q01DX009 (ip), vehicle: other
[6] = dose: 25.0 mg/kg/injection, schedule: Q01DX009 (ip), vehicle: other
[7] = dose: 50.0 mg/kg/injection, schedule: Q01DX009 (ip), vehicle: other
[8] = dose: 100.0 mg/kg/injection, schedule: Q01DX009 (ip), vehicle: other
[9] = dose: 100.0 mg/kg/injection, schedule: Q01DX009 (ip), vehicle: saline
[10] = dose: 200.0 mg/kg/injection, schedule: Q01DX009 (ip), vehicle: saline
[11] = dose: 50.0 mg/kg/injection, schedule: Q01DX005 (ip), vehicle: Klucel (hydroxypropylcellulose) (HPC)
[12] = dose: 100.0 mg/kg/injection, schedule: Q01DX005 (ip), vehicle: Klucel (hydroxypropylcellulose) (HPC)
[13] = dose: 200.0 mg/kg/injection, schedule: Q01DX005 (ip), vehicle: Klucel (hydroxypropylcellulose) (HPC)
[14] = dose: 25.0 mg/kg/injection, schedule: Q01DX009 (ip), vehicle: saline
[15] = dose: 50.0 mg/kg/injection, schedule: Q01DX009 (ip), vehicle: saline
[16] = dose: 25.0 mg/kg/injection, schedule: Q01DX005 (ip), vehicle: Klucel (hydroxypropylcellulose) (HPC)
[17] = dose: 50.0 mg/kg/injection, schedule: Q01DX005 (ip), vehicle: saline with Tween-80
[18] = dose: 60.0 mg/kg/injection, schedule: Q01DX005 (ip), vehicle: saline with Tween-80
[19] = dose: 120.0 mg/kg/injection, schedule: Q01DX005 (ip), vehicle: saline with Tween-80
[20] = dose: 240.0 mg/kg/injection, schedule: Q01DX005 (ip), vehicle: saline with Tween-80

Measured: T/C

CC(/C=C(\C)N1CCCC1)=[N+]1CCCC1
inactive: dose: 0.12 mg/kg/injection, schedule: Q01DX009 (ip), vehicle: saline 111 % of control | dose: 0.25 mg/kg/injection, schedule: Q01DX009 (ip), vehicle: saline 111 % of control | dose: 0.5 mg/kg/injection, schedule: Q01DX009 (ip), vehicle: saline 108 % of control | dose: 1.0 mg/kg/injection, schedule: Q01DX009 (ip), vehicle: saline 109 % of control | dose: 2.0 mg/kg/injection, schedule: Q01DX009 (ip), vehicle: saline 109 % of control

CC(=O)OCC(COC(C)=O)=C1N=C(c2ccccc2)OC1=O
inactive: dose: 100.0 mg/kg/injection, schedule: Q04DX003 (ip), vehicle: saline with Tween-80 100 % of control | dose: 200.0 mg/kg/injection, schedule: Q04DX003 (ip), vehicle: saline with Tween-80 100 % of control | dose: 400.0 mg/kg/injection, schedule: Q04DX003 (ip), vehicle: saline with Tween-80 100 % of control

COC(=O)c1cc(CC[N+](C)(C)Cc2ccccc2)c2ccccn12
inactive: dose: 6.25 mg/kg/injection, schedule: Q04DX002 (ip), vehicle: saline 104 % of control | dose: 12.5 mg/kg/injection, schedule: Q04DX002 (ip), vehicle: saline 96 % of control | dose: 25.0 mg/kg/injection, schedule: Q04DX002 (ip), vehicle: saline 106 % of control

[Br][Sn]([Br])([S]c1ccccn1)[S]c1ccccn1
inactive: dose: 12.5 mg/kg/injection, schedule: Q01DX009 (ip), vehicle: saline with Tween-80 111 % of control | [1] 103 % of control | [2] 100 % of control and 95 % of control | [3] 89 % of control

Cc1cc(O)c(NCCN(C)C)c2c(=O)c3ccccc3sc12
inactive: [2] 100 % of control | [4] 101 % of control | [3] 100 % of control

CC(O)C(NC(=O)c1ccccc1)C(=O)O (centres undefined)
inactive: [2] 99 % of control | [4] 95 % of control | [3] 91 % of control

CCCC1(CCC)c2ccccc2C(Cl)(CCl)c2ccccc21
inactive: [5] 103 % of control | [6] 106 % of control | [7] 109 % of control | [8] 107 % of control | dose: 200.0 mg/kg/injection, schedule: Q01DX009 (ip), vehicle: other 109 % of control

CCOC(=O)CCC(NC(=O)OCCNCCCl)C(=O)OCC (centres undefined)
inactive: [9] 86 % of control | [10] 86 % of control | dose: 400.0 mg/kg/injection, schedule: Q01DX009 (ip), vehicle: saline 95 % of control

OCC1COC(c2ccccc2)=N1 (centres undefined)
inactive: [11] 100 % of control | [12] 99 % of control | [13] 100 % of control

CCCCCCCCCCCCC1=NCC[N+]1(CCO)CC(O)COc1cc(Cl)c(Cl)cc1Cl (centres undefined)
inactive: dose: 12.5 mg/kg/injection, schedule: Q01DX009 (ip), vehicle: saline 105 % of control | [14] 105 % of control | [15] 102 % of control and 95 % of control | [9] 90 % of control

O=c1[nH]cnc2cc([N+](=O)[O-])ccc12
inactive: dose: 12.0 mg/kg/injection, schedule: Q01DX005 (ip), vehicle: Klucel (hydroxypropylcellulose) (HPC) 101 % of control | [16] 101 % of control | [11] 101 % of control and 106 % of control | [12] 111 % of control

C=C(C(=O)O)C(N)C(=O)O (centres undefined)
inactive: dose: 25.0 mg/kg/injection, schedule: Q01DX005 (ip), vehicle: saline 98 % of control | dose: 50.0 mg/kg/injection, schedule: Q01DX005 (ip), vehicle: saline 98 % of control | dose: 100.0 mg/kg/injection, schedule: Q01DX005 (ip), vehicle: saline 112 % of control | dose: 200.0 mg/kg/injection, schedule: Q01DX005 (ip), vehicle: saline 97 % of control | dose: 400.0 mg/kg/injection, schedule: Q01DX005 (ip), vehicle: saline 96 % of control

Cc1cn(CCCCCCOc2c3occc3cc3ccc(=O)oc23)c(=O)[nH]c1=O
inactive: [11] 92 % of control | dose: 50.0 mg/kg/injection, schedule: Q04DX002 (ip), vehicle: Klucel (hydroxypropylcellulose) (HPC) 98 % of control | dose: 100.0 mg/kg/injection, schedule: Q04DX002 (ip), vehicle: Klucel (hydroxypropylcellulose) (HPC) 104 % of control | [13] 88 % of control | dose: 200.0 mg/kg/injection, schedule: Q04DX002 (ip), vehicle: Klucel (hydroxypropylcellulose) (HPC) 96 % of control

COc1ccc2c(c1)C1(C)C(=O)OC(C2=O)C1C (centres undefined)
inactive: dose: 50.0 mg/kg/injection, schedule: Q01DX001 (ip), vehicle: Klucel (hydroxypropylcellulose) (HPC) 104 % of control | dose: 100.0 mg/kg/injection, schedule: Q01DX001 (ip), vehicle: Klucel (hydroxypropylcellulose) (HPC) 99 % of control | dose: 200.0 mg/kg/injection, schedule: Q01DX001 (ip), vehicle: Klucel (hydroxypropylcellulose) (HPC) 114 % of control

CCOC(CNCc1cc(C)c2[nH]c3ccccc3c2c1C)OCC
inactive: [17] 100 % of control | dose: 100.0 mg/kg/injection, schedule: Q01DX005 (ip), vehicle: saline with Tween-80 102 % of control | dose: 200.0 mg/kg/injection, schedule: Q01DX005 (ip), vehicle: saline with Tween-80 110 % of control

COC(=O)C1CC=C(c2ccccc2)CNC1 (centres undefined)
inactive: dose: 100.0 mg/kg/injection, schedule: Q01DX001 (ip), vehicle: saline with Tween-80 93 % of control | dose: 200.0 mg/kg/injection, schedule: Q01DX001 (ip), vehicle: saline with Tween-80 94 % of control

O=S(=O)(OCCF)c1cc(Cl)c(Cl)cc1Cl
inactive: dose: 12.5 mg/kg/injection, schedule: Q01DX005 (ip), vehicle: Klucel (hydroxypropylcellulose) (HPC) 98 % of control | [16] 98 % of control | [11] 89 % of control

CCC/C=C(/C=N/Nc1ccc([N+](=O)[O-])cc1[N+](=O)[O-])CC
inactive: dose: 12.5 mg/kg/injection, schedule: Q01DX005 (ip), vehicle: saline with Tween-80 97 % of control | dose: 25.0 mg/kg/injection, schedule: Q01DX005 (ip), vehicle: saline with Tween-80 109 % of control | [17] 91 % of control and 95 % of control

O=C(O)CCCC(=O)c1ccccc1
inactive: [14] 105 % of control | [15] 100 % of control | [9] 101 % of control | [10] 108 % of control

COc1cc(-c2cc(C(=O)O)c3cc4ccccc4cc3n2)cc(OC)c1OC
inactive: dose: 50.0 mg/kg/injection, schedule: Q01DX009 (ip), vehicle: Klucel (hydroxypropylcellulose) (HPC) 113 % of control | dose: 100.0 mg/kg/injection, schedule: Q01DX009 (ip), vehicle: Klucel (hydroxypropylcellulose) (HPC) 110 % of control | dose: 200.0 mg/kg/injection, schedule: Q01DX009 (ip), vehicle: Klucel (hydroxypropylcellulose) (HPC) 104 % of control

CN(C)c1ccc(C(c2cc3c(cc2O)OCO3)N2CCOCC2)cc1 (centres undefined)
inactive: [18] 113 % of control | [19] 120 % of control | [20] 108 % of control

CC1(Cn2ccc(=O)[nH]c2=O)CC(C2(C)OCCO2)C(=O)O1 (centres undefined)
inactive: [18] 102 % of control | [19] 102 % of control | [20] 101 % of control

CCOC(=O)NCCCCl
inactive: [15] 99 % of control | [9] 101 % of control | [10] 107 % of control

CCCC(C)(C)c1cc(C(C)C)cc(C(C)(C)CCC)c1O
inactive: [5] 100 % of control | [6] 100 % of control | dose: 25.0 mg/kg/injection, schedule: Q01DX009 (ip), vehicle: saline + Tween-80 + alcohol 103 % of control | [7] 106 % of control | dose: 50.0 mg/kg/injection, schedule: Q01DX009 (ip), vehicle: saline + Tween-80 + alcohol 101 % of control | [8] 112 % of control | dose: 100.0 mg/kg/injection, schedule: Q01DX009 (ip), vehicle: saline + Tween-80 + alcohol 100 % of control | dose: 200.0 mg/kg/injection, schedule: Q01DX009 (ip), vehicle: saline + Tween-80 + alcohol 113 % of control

CC12CCC3C(CCC4CC(O)CCC43C)C1CC(C1(O)C(=O)Nc3ccccc31)C2=O (centres undefined)
inactive: [1] 94 % of control | [2] 88 % of control | [4] 94 % of control

Oc1cc2c(cc1C(Nc1ncccn1)c1ccc3c(c1)OCO3)OCO2 (centres undefined)
inactive: [18] 102 % of control | [19] 100 % of control | [20] 95 % of control
